Measured values: article PMC4894406, “Results of an abbreviated phase-II study with the Akt Inhibitor MK-2206 in Patients with Advanced Biliary Cancer” (Scientific Reports, 2015)
Values joined by “and” are separate entries in the source; they are usually repeats but may differ in a detail not shown here. Equal values may be shown once. Read-outs that look alike come from different tables or passages of the source.

What was measured:
[1] = test system: advanced, refractory biliary cancer; assay: Phase II study: efficacy (RECIST 1.1, PFS, OS); assay type: in vivo, human; settings: for Overall Survival / Progression-Free Survival: 200 mg weekly (text b31 gives months)
Source text: This was a National Cancer Institute (NCI)/Cancer Therapy Evaluation Program (CTEP)-sponsored phase II, open label, multicenter trial led by The Ohio State University with the participation of Georgetown University and Case Western University (ClinicalTrials.gov NCT01425879, date of registration 08/27/2011). MK-2206 was provided by NCI/CTEP. The primary objective of this study was to determine the overall response rate (complete response and partial response) as defined by RECIST[17]. Tumor tissue samples were required from all patients prior to enrollment. Secondary objectives included overall survival (OS), progression-free survival (PFS), and the presence of any mutations in the pI3k/AKT pathway and the evaluation of toxicities related to MK-2206. The starting dose and schedule for MK-2206 was 200 mg given weekly in 28-day cycles without interruption. Treatment was administered on an outpatient basis. Two levels of dose reductions were planned (135 mg weekly and 90 mg weekly) with patients taken off the study for additional dose reductions. Radiologic assessment was done by computed tomography every 8 weeks and responses were measured according to RECIST 1.1[17]. Toxicities were defined by the NCI-Common Terminology Criteria of Adverse Events version 4.0.

[2] = Plasma pharmacokinetics in biliary cancer patients (LC-MS/MS, non-compartmental); assay type: in vivo, human; settings: for AUC(0-t): read-out: AUC0–96; for Vd/F: read-out: Vz/F; for k el: read-out: λz (converted)
Method: Plasma samples were collected from all patients at Week 1 of Cycle 1 immediately prior to dose administration, and at 30 min, 1, 2, 3, 4, 6, 8, 24, 48, and 96 hours after dose administration. The 24, 48 and 96-hour samples were collected on the mornings of days 2, 3 and 5 within 4 hours of the target time (e.g. 24 ± 4, 48 ± 4, and 96 ± 4 hours). Plasma samples were also collected immediately prior to the oral intake of MK-2206 tablet(s) on days 8, 15 and 29 (i.e. Cycle 2, Day 1) so that trough pre-dose levels of MK-2206 could be determined in the following studies. The plasma levels of MK-2206 were evaluated using quantitative liquid chromatography/tandem mass spectrometry (LC-MS/MS) at Merck & Co. Non-compartmental PK parameters were determined for MK-2206 using Phoenix WinNonlin (v6.3, Pharsight, Mountain View, CA).

human Akt (Akt-1) = settings: cited from earlier work
human Akt (Akt-2) = settings: cited from earlier work
human Akt (Akt-3) = settings: cited from earlier work
CYP3A = test system: CYP3A; set-up: method as in PMID 24387695; settings: at 0.1 to 10 μM; cited from earlier work
CYP3A4 = settings: cited from earlier work
[3] = set-up: method as in Fouladi et al. [23]; settings: children with refractory malignancies, 9 subjects, 120 mg/m^2 weekly oral, first dose; ref Fouladi et al. [23]; cited from earlier work
[4] = OSU Trial, 7 subjects (subject 1004 excluded), BSA-adjusted
[5] = OSU Trial, 7 subjects (subject 1004 excluded), first dose 200 mg
[6] = human, plasma, po, 200 mg, subject 1001, first dose 200 mg oral
[7] = human, plasma, po, 200 mg, subject 1002, first dose 200 mg oral
[8] = human, plasma, po, 200 mg, subject 1003, first dose 200 mg oral
[9] = human, plasma, po, 200 mg, subject 1004, first dose 200 mg oral
[10] = human, plasma, po, 200 mg, subject 1005, first dose 200 mg oral
[11] = human, plasma, po, 200 mg, subject 1007, first dose 200 mg oral
[12] = human, plasma, po, 200 mg, subject 2006, first dose 200 mg oral
[13] = human, plasma, po, 200 mg, subject 2008, first dose 200 mg oral

NC1(c2ccc(-c3nc4ccn5c(=O)[nH]nc5c4cc3-c3ccccc3)cc2)CCC1 [MK-2206]
Median PFS ([1]; 8 patients, 200 mg weekly): 1.7 months
best response for all patients ([1]; 8 patients, 200 mg weekly): stable disease
median OS ([1]; 8 patients, 200 mg weekly): 3.5 months
objective response ([1]; 8 patients, 200 mg weekly): No patients had an objective response
duration of stable disease ([1]; observed in two patients): exceeding 12 weeks
Best response ([1]; subject 1001, Intrahepatic, 200 mg weekly): Progressive disease
Overall Survival ([1]; subject 1001, Intrahepatic): 2.2
Progression-Free Survival ([1]; subject 1001, Intrahepatic): 1.8
Best response ([1]; subject 1002, Intrahepatic, 200 mg weekly): Progressive disease
Overall Survival ([1]; subject 1002, Intrahepatic): 3.1
Progression-Free Survival ([1]; subject 1002, Intrahepatic): 0.5
Best response ([1]; subject 1003, Intrahepatic, 200 mg weekly): Progressive disease
Overall Survival ([1]; subject 1003, Intrahepatic): 3.8
Progression-Free Survival ([1]; subject 1003, Intrahepatic): 1.2
Best response ([1]; subject 1004, Intrahepatic, 200 mg weekly): Progressive disease
Overall Survival ([1]; subject 1004, Intrahepatic): 3.1
Progression-Free Survival ([1]; subject 1004, Intrahepatic): 1.6
Best response ([1]; subject 1005, Intrahepatic, 200 mg weekly): Stable disease
Overall Survival ([1]; subject 1005, Intrahepatic): 20.2
Progression-Free Survival ([1]; subject 1005, Intrahepatic): 3.4
Best response ([1]; subject 1007, Extrahepatic, 200 mg weekly): Progressive disease
Overall Survival ([1]; subject 1007, Extrahepatic): 6.7
Progression-Free Survival ([1]; subject 1007, Extrahepatic): 6.6
Best response ([1]; subject 2006, Intrahepatic, 200 mg weekly): Progressive disease
Overall Survival ([1]; subject 2006, Intrahepatic): 2.8
Progression-Free Survival ([1]; subject 2006, Intrahepatic): 1.2
Best response ([1]; subject 2008, Extrahepatic, 200 mg weekly): Stable disease
Overall Survival ([1]; subject 2008, Extrahepatic): 6.1
Progression-Free Survival ([1]; subject 2008, Extrahepatic): 5.6
CL/F/m^2 (BSA-adjusted CL/F) [2, 4]: 16.5 +/− 7.2 L/hr/m^2 and 16.5±7.2 L/hr/m^2
Vz/F/m^2 [2, 4]: 1521±931 L/m^2
Cmax (average) [2, 5]: 114 ng/mL
Tmax (average) [2, 5]: 6.0 ± 1.6 h
concentration at 48 h ([2]; human, plasma, oral, 200 mg, 6 of 8 patients, read-out: 48-hr plasma concentration): > 22.7 ng/mL and > 56.8 nM
half-life ([2]; human, plasma, oral, 200 mg, OSU Trial, 7 subjects (subject 1004 excluded), first dose 200 mg, read-out: Half life (average) (converted)): 63.5 ± 21.2 h
concentration at 8 day ([2]; human, plasma, oral, 200 mg, day 8, 200 mg weekly, read-out: trough pre-dose average plasma concentration): 14.7 ng/mL
concentration at 15 day ([2]; human, plasma, oral, 200 mg, day 15, 200 mg weekly, read-out: trough pre-dose average plasma concentration): 14.4 ng/mL
concentration at 48 h ([2]; human, plasma, oral, 200 mg, one of the other two patients, read-out: Plasma concentration measured at 48 hours): 18.5 ng/mL
concentration at 48 h ([2]; human, plasma, oral, 200 mg, subject 1004, read-out: Plasma concentration measured at 48 hours): 5.06 ng/mL
Tmax ([2]; human, plasma, po, 200 mg, eight patients, first dose 200 mg oral, read-out: Tmax, range): 4 to 8 h
half-life ([2]; human, plasma, po, 200 mg, eight patients, first dose 200 mg oral, read-out: median terminal elimination half-life (converted)): 58 h
Tmax ([2]; human, plasma, po, 200 mg, eight patients, first dose 200 mg oral, read-out: median time to peak observed plasma concentrations (Tmax)): 6 h
half-life ([2]; human, plasma, po, 200 mg, eight patients, first dose 200 mg oral, read-out: terminal elimination half-life, range): 34 to 88 h
Cmax [2, 6]: 106 ng/mL
AUC(0-t) [2, 6]: 3320 ng·h/mL
half-life ([2]; human, plasma, po, 200 mg, subject 1001, first dose 200 mg oral, read-out: Half-life (converted)): 53.3 h
Tmax ([2]; human, plasma, po, 200 mg, subject 1001, first dose 200 mg oral, read-out: Tmax): 4 h
Vd/F [2, 6]: 3270 L
k el [2, 6]: 3.61e-06 s⁻¹
Cmax [2, 7]: 111 ng/mL
AUC(0-t) [2, 7]: 6850 ng·h/mL
half-life ([2]; human, plasma, po, 200 mg, subject 1002, first dose 200 mg oral, read-out: Half-life (converted)): 80.4 h
Tmax ([2]; human, plasma, po, 200 mg, subject 1002, first dose 200 mg oral, read-out: Tmax): 6 h
Vd/F [2, 7]: 1870 L
k el [2, 7]: 2.5e-06 s⁻¹
Cmax [2, 8]: 176 ng/mL
AUC(0-t) [2, 8]: 8450 ng·h/mL
half-life ([2]; human, plasma, po, 200 mg, subject 1003, first dose 200 mg oral, read-out: Half-life (converted)): 33.8 h
Tmax ([2]; human, plasma, po, 200 mg, subject 1003, first dose 200 mg oral, read-out: Tmax): 6 h
Vd/F [2, 8]: 989 L
k el [2, 8]: 5.83e-06 s⁻¹
Cmax [2, 9]: 11.1 ng/mL
AUC(0-t) [2, 9]: 531 ng·h/mL
half-life ([2]; human, plasma, po, 200 mg, subject 1004, first dose 200 mg oral, read-out: Half-life (converted)): 62.5 h
Tmax ([2]; human, plasma, po, 200 mg, subject 1004, first dose 200 mg oral, read-out: Tmax): 8 h
Vd/F [2, 9]: 22200 L
k el [2, 9]: 3.06e-06 s⁻¹
Cmax [2, 10]: 108 ng/mL
AUC(0-t) [2, 10]: 6020 ng·h/mL
half-life ([2]; human, plasma, po, 200 mg, subject 1005, first dose 200 mg oral, read-out: Half-life (converted)): 86.9 h
Tmax ([2]; human, plasma, po, 200 mg, subject 1005, first dose 200 mg oral, read-out: Tmax): 8 h
Vd/F [2, 10]: 2210 L
k el [2, 10]: 2.22e-06 s⁻¹
Cmax [2, 11]: 90.1 ng/mL
AUC(0-t) [2, 11]: 3730 ng·h/mL
half-life ([2]; human, plasma, po, 200 mg, subject 1007, first dose 200 mg oral, read-out: Half-life (converted)): 50.2 h
Tmax ([2]; human, plasma, po, 200 mg, subject 1007, first dose 200 mg oral, read-out: Tmax): 6 h
Vd/F [2, 11]: 2880 L
k el [2, 11]: 3.89e-06 s⁻¹
Cmax [2, 12]: 144 ng/mL
AUC(0-t) [2, 12]: 5850 ng·h/mL
half-life ([2]; human, plasma, po, 200 mg, subject 2006, first dose 200 mg oral, read-out: Half-life (converted)): 52.4 h
Tmax ([2]; human, plasma, po, 200 mg, subject 2006, first dose 200 mg oral, read-out: Tmax): 4 h
Vd/F [2, 12]: 1870 L
k el [2, 12]: 3.61e-06 s⁻¹
Cmax [2, 13]: 44.7 ng/mL
AUC(0-t) [2, 13]: 2060 ng·h/mL
half-life ([2]; human, plasma, po, 200 mg, subject 2008, first dose 200 mg oral, read-out: Half-life (converted)): 87.5 h
Tmax ([2]; human, plasma, po, 200 mg, subject 2008, first dose 200 mg oral, read-out: Tmax): 8 h
Vd/F [2, 13]: 6560 L
k el [2, 13]: 2.22e-06 s⁻¹
CL/F ([2]; subject 1001, first dose 200 mg oral): 42.5 L/h
CL/F ([2]; subject 1002, first dose 200 mg oral): 16.1 L/h
CL/F ([2]; subject 1003, first dose 200 mg oral): 20.3 L/h
CL/F ([2]; subject 1004, first dose 200 mg oral): 245 L/h
Cmax and AUC of subject 1004 compared to others ([2]; subject 1004 relative to the other seven subjects): 6% to 25
CL/F ([2]; subject 1005, first dose 200 mg oral): 17.6 L/h
CL/F ([2]; subject 1007, first dose 200 mg oral): 39.8 L/h
CL/F ([2]; subject 2006, first dose 200 mg oral): 24.8 L/h
CL/F ([2]; subject 2008, first dose 200 mg oral): 52.0 L/h
accumulation with the current regimen ([2]; trough levels days 8 and 15, 200 mg weekly): no significant accumulation
IC50 (human Akt (Akt-1)): 8 nM
IC50 (human Akt (Akt-2)): 12 nM
IC50 (human Akt (Akt-3)): 65 nM
effect on CYP3A mRNA and activity (CYP3A): insignificant effect
metabolism in human microsomes (CYP3A4): converted to oxidative metabolites in human microsomes via CYP3A4
CL/F/m^2 (BSA-adjusted CL/F) [3]: 18.0 +/− 18.8 L/hr/m^2 and 18.0±18.8 L/hr/m^2
Cmax [3]: 171 ng/mL
Half life [3]: 44.2 ± 23.3 h
Tmax [3]: 5.1 ± 1.6 h
Vz/F/m^2 [3]: 1100±1020 L/m^2
